Like-named read-outs stand apart in the source and are kept apart here.
How the values were obtained:
MV4-11 cell = MV4-11 cell proliferation experiment (CCK-8 cell viability); assay type: cell-based; details: Homo sapiens, MV4-11 cells, 72-hour culture
Method: EXAMPLE 9 Cell Experiment (MV4-11 Cell Proliferation Experiment)
Determination of Cell Viability with CCK-8 Reagent
(1) MV4-11 cell suspension was pipetted from a culture flask into a 15 mL centrifuge tube, and the cell suspension was centrifuged at 1000 rpm for 4 minutes.
(2) A supernatant in the centrifuge tube was discarded, and an appropriate amount of fresh complete medium (IMDM+10% FBS+1% P/S) was added to resuspend the cells. 20 μL of cell suspension was collected, 20 μL of trypan blue was added, and CounterStar was used for counting.
(3) A required cell suspension volume and complete medium volume were calculated according to viable cell density and the required number of plated cells. MV4-11 cells were plated at a density of 1*10^4 cells/well in 100 μL/well.
(4) 100 μL of the above cell suspension was pipetted into a 96-well plate by using an electric pipette. 150 μL of complete medium was added to blank control wells. PBS was added to peripheral wells of the 96-well plate, to avoid liquid evaporation. The 96-well plate was cultured overnight in an incubator.
Day 2: Compound Preparation:
(1) The compound of the present application dissolved in DMSO and the positive control substance ABBV-744 were fetched, and subjected to serial dilution (dilution in column A, column B, . . . , column J sequentially from left to right in a 96-well PCR plate).
An initial concentration of the solution in column A is 10 mM;
Column B: 2 μL of the solution in column A was diluted with 8 μL of DMSO to obtain a final concentration of 2000 μM;
Column C: 2 μL of the solution in column B was diluted with 8 μL of DMSO to obtain a final concentration of 400 μM;
Column D: 2 μL of the solution in column C was diluted with 8 μL of DMSO to obtain a final concentration of 80 μM;
Column E: 2 μL of the solution in column D was diluted with 8 μL of DMSO to obtain a final concentration of 16 μM;
Column F: 2 μL of the solution in column E was diluted with 8 μL of DMSO to obtain a final concentration of 3.2 μM;
Column G: 2 μL of the solution in column F was diluted with 8 μL of DMSO to obtain a final concentration of 0.64 μM;
Column H: 2 μL of the solution in column G was diluted with 8 μL of DMSO to obtain a final concentration of 0.128 μM;
Column I: 2 μL of the solution in column H was diluted with 8 μL of DMSO to obtain a final concentration of 0.0256 μM; and
Column J: 2 μL of the solution in column I was diluted with 8 μL of DMSO to obtain a final concentration of 0.00512 μM.
The suspension was centrifuged for 1 minute at 1000 rpm by using a low-speed centrifuge.
(2) 3×Compound Preparation: (Diluted in a 96-Well Cell Culture Plate)
3 μL of each of the solutions in columns B to J was pipetted into […] of complete medium by a 10 μL manual pipette to obtain 3×compound solutions with a final concentration of 30000, 6000, 1200, 240, 48, 9.6, 1.92, 0.384 and 0.0768 nM, respectively; and 3 μL of DMSO was pipetted into […] of complete medium as a control. The resulting 96-well cell culture plate was put on an oscillator to be oscillated at 500 rpm for 30 minutes.
(1) The prepared 3×compound solutions with the above concentrations were each pipetted by a manual pipette with its volume set to 50 μL into a corresponding well of the 96-well plate after overnight culture on the first day, and the total culture volume of each well was 150 μL. The final concentrations of the compounds in the 96-well plate were 10 μM, 2 μM, 400 nM, 80 nM, 16 nM, 3.2 nM, 0.64 nM, 0.128 nM and 0.0256 nM, respectively. The resulting 96-well plate was put on an oscillator to be oscillated at 500 rpm for 10 minutes.
(2) The 96-well plate as prepared was put in a CO2 incubator for 72-hour culture.
(1) CCK-8 test solution was pipetted into the 96-well cell culture plate in an amount of 15 μL/well by a pipette with a volume set to 15 μL.
(2) The 96-well plate was put in the CO2 incubator for 4-hour culture. […]

MV4-11 xenograft tumor = experiment: In vivo efficacy test, MV4-11 xenograft tumor model in mice; details: NOD-SCID mice, 5 mg/kg qd gavage, 14 days
Text: EXAMPLE 11 In Vivo Efficacy Test of the Compound of the Present Application
Objective: To test the inhibitory effect of the test compound on the growth of xenograft tumor in nude mice with MV4-11 leukemia.
Method: NOD-SCID mice were subcutaneously inoculated with MV4-11 cells to establish an MV4-11 xenograft tumor model in mice. 16 days after inoculation (d16), average tumor volume was about 210 mm^3. According to the tumor volumes, the tumor-bearing mice were grouped in a random block method, with 6 mice in each group. The groups included a solvent control group, an ABBV-744 control group, and a test sample group, the dosage was 5 mg/kg mouse body weight, and the dose volume was 10 mL/kg mouse body weight, once a day. Each group was gavage administered for 14 consecutive days, and the solvent control group was gavage administered with a blank solvent (20% […] solution). Tumor volumes were measured twice weekly after administration of the test drug. The animals were euthanized after the test.

hERG = target: T1, hERG (Homo sapiens, UniProt Q12809); experiment: hERG inhibition test, whole-cell patch clamp in HEK293 cells stably expressing the hERG ion channel; assay type: cell-based; details: human, HEK293 cells stably expressing the hERG ion channel
T1 construct: expressed in transfected cells; host or cells: HEK293 cells stably expressing hERG
T1 sequence (Q12809 whole entry): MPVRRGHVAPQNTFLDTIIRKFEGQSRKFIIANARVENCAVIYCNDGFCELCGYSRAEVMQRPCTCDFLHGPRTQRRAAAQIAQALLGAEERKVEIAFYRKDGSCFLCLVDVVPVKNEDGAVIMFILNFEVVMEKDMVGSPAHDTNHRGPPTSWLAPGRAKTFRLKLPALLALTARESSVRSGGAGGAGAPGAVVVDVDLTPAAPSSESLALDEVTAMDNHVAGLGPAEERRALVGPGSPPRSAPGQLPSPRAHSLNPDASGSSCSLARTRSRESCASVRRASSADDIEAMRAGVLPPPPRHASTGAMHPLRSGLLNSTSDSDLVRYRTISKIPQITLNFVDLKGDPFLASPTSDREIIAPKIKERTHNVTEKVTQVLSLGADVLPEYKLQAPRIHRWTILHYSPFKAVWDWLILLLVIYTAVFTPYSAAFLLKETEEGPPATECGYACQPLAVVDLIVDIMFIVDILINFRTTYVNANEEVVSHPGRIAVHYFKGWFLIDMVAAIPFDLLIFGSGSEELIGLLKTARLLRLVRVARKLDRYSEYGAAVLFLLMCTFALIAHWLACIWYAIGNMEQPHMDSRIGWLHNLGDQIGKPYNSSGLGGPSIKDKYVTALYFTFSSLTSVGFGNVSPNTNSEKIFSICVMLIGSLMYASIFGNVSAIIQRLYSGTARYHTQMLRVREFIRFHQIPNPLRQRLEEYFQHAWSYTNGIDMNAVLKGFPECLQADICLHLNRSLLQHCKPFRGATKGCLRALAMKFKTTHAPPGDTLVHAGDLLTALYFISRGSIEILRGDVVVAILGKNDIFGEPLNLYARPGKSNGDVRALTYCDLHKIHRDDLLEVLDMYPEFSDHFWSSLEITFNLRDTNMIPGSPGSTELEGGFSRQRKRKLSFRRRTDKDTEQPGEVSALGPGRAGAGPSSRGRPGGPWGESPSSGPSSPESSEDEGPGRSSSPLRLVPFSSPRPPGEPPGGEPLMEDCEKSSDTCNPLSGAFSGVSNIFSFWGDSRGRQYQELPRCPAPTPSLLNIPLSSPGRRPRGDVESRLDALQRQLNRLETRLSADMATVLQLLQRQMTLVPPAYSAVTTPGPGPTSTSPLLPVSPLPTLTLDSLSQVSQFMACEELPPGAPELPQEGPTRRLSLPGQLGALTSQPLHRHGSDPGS
Method: (§1) An hERG current was recorded by the whole-cell patch clamp technique. A suspension of HEK293 cells stably expressing the hERG ion channel was added to a 35 mm culture dish, and the culture dish was put on a stage of an inverted microscope. […] The pulse program was repeated every 15 seconds throughout the whole test. After the current became stable, the administration method of continuous extracellular perfusion from low concentration to high concentration was used, and the perfusion started from low concentration and continued until the drug effect was stable, and then the perfusion of the next concentration was performed.
(§2) After the test, stimulus release and signal acquisition were carried out through PatchMaster software. Graphpad Prism 8.0 was used for further data analysis and curve fitting. Effects of each compound at different concentrations were represented with an inhibition rate of the tail current. Inhibition rate=(peak tail current before administration—peak tail current after administration)/peak tail current before administration x 100%. Half-maximal inhibitory concentration IC50 of the test samples was obtained by the fitting analysis with Hill equation.

hERG ion channel = target: T2, hERG ion channel (Homo sapiens, UniProt Q12809); experiment: as above; assay type: cell-based; details: tail current, Hill equation fit
T2 construct: expressed in transfected cells; host or cells: HEK293 cells stably expressing hERG
T2 sequence (Q12809 whole entry): as above
Method: as §1, §2

[1] = read-out: Average hERG inhibition rate
[2] = read-out: hERG Inhibition rate, Cell 1
[3] = read-out: hERG Inhibition rate, Cell 2

CCNC(=O)c1cc2c(-c3sc(C(C)(C)O)cc3N3CCc4ccccc43)cn(C)c(=O)c2[nH]1 [Compound 1, N-ethyl-4-(5-(2-hydroxypropyl-2-yl)-3-(indolin-1-yl)thiophen-2-yl)-6-methyl-7-oxo-6,7-dihydro-1H-pyrrolo[2,3-c]pyridine-2-carboxamide]
IC50 (MV4-11 cell): 1.98 nM
Relative tumor proliferation rate T/C (MV4-11 xenograft tumor): 33.15%
inhibition at 0.37 µM (hERG; [1]): 3.89%
inhibition at 0.37 µM (hERG; [2]): 0.98%
inhibition at 0.37 µM (hERG; [3]): 6.79%
inhibition at 1.11 µM (hERG; [1]): 4.35%
inhibition at 1.11 µM (hERG; [2]): -0.28%
inhibition at 1.11 µM (hERG; [3]): 8.97%
inhibition at 3.33 µM (hERG; [1]): 10.1%
inhibition at 3.33 µM (hERG; [2]): 2.97%
inhibition at 3.33 µM (hERG; [3]): 17.3%
inhibition at 10 µM (hERG; [1]): 21.6%
inhibition at 10 µM (hERG; [2]): 14.6%
inhibition at 10 µM (hERG; [3]): 28.6%
inhibition at 30 µM (hERG; [1]): 56.3%
inhibition at 30 µM (hERG; [2]): 54.3%
inhibition at 30 µM (hERG; [3]): 58.3%
IC50 (hERG ion channel): 26.8 µM
